# Where “and” joins values, the source holds several entries; their conditions need not be identical. Equal entries are not always repeated.
# Assay: Pharmacokinetic studies in mice (intravenous and intramuscular, plasma, HPLC-MS/MS)
# Assay type: in vivo, BALB/c mice
# Design: AUClast / AUCall / AUCINF_obs / AUCINF_pred / AUCINFobs: concentration or dose not given beside the values; Tlast / Clast / AUMClast / AUMCINF_obs / AUMCINF_pred / Lambda_z / HL_Lambda_z / Cl_obs / Cl_pred / Cl_F_obs / Tlag / Cl_F_pred: unit not given here
# Details: IV; for plasma concentration: individual mice 1-8; for plasma concentration, AV: average of mice
# Method: Pharmacokinetic experimental procedures of compound 16C were measured according to previous reports with some modifications ([Wang et al., 2022]). In brief, BALB/c mice were divided into two groups of eight mice each; one group was injected intravenously and the other was injected intramuscularly with compound 16C at a dose of 10 mg/kg. The dose was based on previous studies of novel pleuromutilin derivatives ([Jin et al., 2019]; [Wang et al., 2022]). Meanwhile, the dose of tiamulin approved by the European Union for intramuscular administration is 10–20 mg/kg ([EMA, 1999]). The volume of the injection was 0.1 mL/10 g. The compound 16C formulation was a filtered solution in 5% DMSO, 5% Tween-80, and 90% normal saline. Blood was obtained from eight mice via the ocular venous plexus at 0.083, 0.167, 0.25, 0.334, 0.5, 0.75, 1, 1.5, 2, 3, 4, 6, 8, and 12 h following tail intravenous or thigh Intramuscular injection. A glass capillary with a diameter of 0.3 mm was inserted into the outer canthus of the mouse, and 200 μL blood was collected using a 1.5 mL anticoagulant centrifuge tube. The blood was centrifuged at 3,000 rpm for 10 min to obtain plasma. 100 μL of plasma was aspirated for drug concentration detection, and eight parallel samples from different mice were obtained at each time point.
# All pharmacokinetic experimental samples and method validation samples were added with 4 times the volume of acetonitrile and shaken for 1 min, centrifuged at high speed at 13,000× g for 10 min, and the supernatants were taken and filtered to detect the drug concentration. Some samples with high concentrations were diluted to the linear range prior to analysis.
# The extracted samples were analyzed using a high-performance liquid chromatography-tandem mass spectrometry (HPLC-MS/MS) system (Agilent, Santa Clara, CA, United States) 1200 HPLC and Applied Biosystems (Waltham, MA, United States) API 4000 mass spectrometer). HPLC-MS/MS analysis using a Zorbax Eclipse XDB-C18 (4.6 × 50 mm, 3.5 μm) column (Agilent). The mobile phase A (acetonitrile) and B (water) were applied as a gradient as follows: 0–3 min: 15%–95% A and maintain from 3 min to 5 min at 95% A. 5–5.1 min: 95%–15% A and maintain from 5.1 to 10 min at 15% A. Flow rate: 500 μL/min; column temperature: 30°C and injection volume: 4 μL. The electrospray ionization (ESI) source of the mass spectrometer was operated in […], with the following ion source parameters: ion spray voltage 4,500 V, collision gas 7 psi, ion source gas 1 55 psi, ion source gas 2 40 psi, curtain gas 20 psi, source temperature 600°C. The precursor ion m/z of Compound 16C was 633.3, and the product ions m/z were 272.0 (quantifier) 286.9 and 313.0. Declustering potentials (DP) were 140, 140, and 144 V, respectively; entrance potential (EP) was 10 V; collision energy (CE) was 55, 46, and 15 V, respectively; and collision cell exit potential (CXP) was 14 V.
# […] Pharmacokinetic parameters include time to maximum concentration (Tmax), maximum concentration (Cmax), the area under the plasma concentration–time curve (AUC0-∞), clearance rate (CL), the apparent volume of distribution (Vd), bioavailability (F), elimination half-life (T1/2kel) and absorption half-life (T1/2ka).
smiles,measurement,setting,value
C=C[C@]1(C)C[C@@H](OC(=O)CSc2ccc(NC(=O)Cc3ccc([N+](=O)[O-])cc3)cc2)[C@]2(C)[C@H](C)CC[C@]3(CCC(=O)[C@H]32)[C@@H](C)[C@@H]1O,plasma concentration,0.083h,4.18 ng/mL and 5.51 ng/mL and 3.62 ng/mL and 4.5 ng/mL and 6.77 ng/mL and 4.82 ng/mL and 6.27 ng/mL and 4.14 ng/mL
same,"plasma concentration, AV",0.17h,2.954 ng/mL
same,plasma concentration,0.17h,2.24 ng/mL and 3.08 ng/mL and 2.67 ng/mL and 1.93 ng/mL and 4.06 ng/mL and 3.1 ng/mL and 3.5 ng/mL and 3.05 ng/mL
same,"plasma concentration, AV",0.25h,1.9525 ng/mL
same,plasma concentration,0.25h,1.53 ng/mL and 1.91 ng/mL and 1.97 ng/mL and 1.44 ng/mL and 2.52 ng/mL and 1.83 ng/mL and 2.17 ng/mL and 2.25 ng/mL
same,"plasma concentration, AV",0.33h,1.413 ng/mL
same,plasma concentration,0.33h,1.05 ng/mL and 1.59 ng/mL and 1.43 ng/mL and 0.752 ng/mL and 1.83 ng/mL and 1.19 ng/mL and 1.81 ng/mL and 1.65 ng/mL
same,"plasma concentration, AV",0.5h,0.9296 ng/mL
same,plasma concentration,0.5h,0.563 ng/mL and 0.856 ng/mL and 1.02 ng/mL and 0.564 ng/mL and 1.49 ng/mL and 0.788 ng/mL and 0.986 ng/mL and 1.17 ng/mL
same,"plasma concentration, AV",0.75h,0.4375 ng/mL
same,plasma concentration,0.75h,0.295 ng/mL and 0.454 ng/mL and 0.34 ng/mL and 0.281 ng/mL
same,"plasma concentration, AV",1h,0.1263 ng/mL
same,"plasma concentration, AV",1.5h,0.0633 ng/mL
same,"plasma concentration, AV",2h,0.03673 ng/mL
same,"plasma concentration, AV",3h,0.01748 ng/mL
same,"plasma concentration, AV",4h,0.01406 ng/mL
same,"plasma concentration, AV",6h,0.005976 ng/mL
same,"plasma concentration, AV",8h,0.004256 ng/mL
same,"plasma concentration, AV",12h,0.002617 ng/mL
same,AUCINF_obs,individual mice,1731 and 1454.8 and 1871.31 and 1501.72 and 1496.6 and 2594.18 and 1738.12 and 2317.09
same,AUCINF_pred,individual mice,1730.96 and 1454.56 and 1871.3 and 1501.69 and 1496.6 and 2594.16 and 1737.96 and 2317.08
same,AUC_%Back_Ext_obs,individual mice,23.2101% and 33.5458% and 33.5029% and 23.3787% and 40.4621% and 28.4699% and 29.0426% and 30.8151%
same,AUC_%Back_Ext_pred,individual mice,23.2107% and 33.5513% and 33.5032% and 23.3791% and 40.462% and 28.47% and 29.0454% and 30.8152%
same,AUC_%Extrap_obs,individual mice,1.0811% and 0.9306% and 0.1046% and 0.8821% and 0.3771% and 0.7545% and 1.237% and 1.2773%
same,AUC_%Extrap_pred,individual mice,1.0785% and 0.9144% and 0.1039% and 0.8804% and 0.3773% and 0.754% and 1.2276% and 1.277%
same,AUCall,individual mice,1712.29 and 1441.26 and 1869.35 and 1488.47 and 1490.96 and 2574.6 and 1716.62 and 2287.49
same,AUClast,individual mice,1712.29 and 1441.26 and 1869.35 and 1488.47 and 1490.96 and 2574.6 and 1716.62 and 2287.49
same,AUMCINF_obs,individual mice,945.518 and 756.201 and 591.051 and 764.612 and 715.375 and 1415.53 and 1084.7 and 1445.93
same,AUMCINF_pred,individual mice,944.931 and 753.432 and 590.916 and 764.278 and 715.413 and 1415.38 and 1082.77 and 1445.86
same,AUMC_%Extrap_obs,individual mice,25.4794% and 20.837% and 3.3902% and 21.6397% and 12.7428% and 15.3656% and 22.9491% and 23.7174%
same,AUMC_%Extrap_pred,individual mice,25.4331% and 20.546% and 3.368% and 21.6055% and 12.7474% and 15.3562% and 22.812% and 23.7133%
same,AUMClast,individual mice,704.605 and 598.632 and 571.014 and 599.152 and 624.216 and 1198.03 and 835.77 and 1103
same,C0,individual mice,5541.15 and 7579.63 and 9597.07 and 4839.8 and 10091.7 and 11026.6 and 7343.77 and 10935.2
same,Cl_obs,individual mice,0.0069 and 0.0053 and 0.0067 and 0.0039 and 0.0058 and 4315.76
same,Cl_pred,individual mice,0.0069 and 0.0053 and 0.0067 and 0.0039 and 0.0058 and 4315.77
same,Clast,individual mice,3.84 and 3.72 and 0.875 and 2.95 and 1.36 and 6.29 and 6.01 and 8.25
same,Cmax,individual mice,4140 and 4180 and 5510 and 3620 and 4500 and 6770 and 4820 and 6270
same,HL_Lambda_z,individual mice,3.378 and 2.5225 and 1.5506 and 3.1126 and 2.8768 and 2.157 and 2.4798 and 2.4866
same,Tlast,individual mice,8 and 12
same,Cmax_D,"individual mice, dose-normalised, in µg/mL",0.0004 and 418 and 551 and 362 and 450 and 677 and 482
same,Lambda_z,"individual mice, non-compartmental analysis",0.2052 and 0.2748 and 0.447 and 0.2227 and 0.2409 and 0.3213 and 0.2795 and 0.2788
same,MRTINF_obs,"individual mice, in h",0.5462 and 0.5198 and 0.3158 and 0.5092 and 0.478 and 0.5457 and 0.6241 and 0.624
same,MRTINF_pred,"individual mice, in h",0.5459 and 0.518 and 0.3158 and 0.5089 and 0.478 and 0.5456 and 0.623 and 0.624
same,MRTlast,"individual mice, in h",0.4115 and 0.4154 and 0.3055 and 0.4025 and 0.4187 and 0.4653 and 0.4869 and 0.4822
same,Tmax,"individual mice, in h",0.083

# — article PMC11695783 (Frontiers in Pharmacology, 2024)
